Measurements published in patent publication US9796719B2, “Compounds and pharmaceutical compositions thereof for the treatment of inflammatory disorders” (GALAPAGOS NV, priority 2013, dated 2017).

What was measured:
hENPP2 [1] = target: T1, hENPP2 (UniProtKB/SwissProt Sequence ref Q13822) (Homo sapiens (Human), UniProt Q13822); assay: LPC hENPP2 assay (choline release, LPC as substrate); assay type: biochemical
How it was run: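 Choline released from LPC by ENPP2 is quantified after stopping with stop-developer containing 0.6 U/mL choline oxidase, 0.6 U/mL peroxidase, 1.8 mM TOOS, 1.2 mM amino-antipyrine and 20 mM EGTA. Quinoneimine dye read at 555 nm after 30 min at room temperature.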

hENPP2 [2] = target: T1, hENPP2; assay: FS3 hENPP2 assay (fluorogenic substrate FS-3); assay type: biochemical; settings: hENPP2, FS-3 as substrate
How it was run: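 Compound dilutions (1/5 steps, top concentration as added 20 μM) were preincubated 30 min at room temperature with hENPP2 (0.4 or 0.64 μg/mL final) in pH 8.0 Tris buffer containing NaCl, KCl, MgCl2, CaCl2 and 0.1% fatty-acid-free BSA. FS-3 (0.75 μM as added) was then hydrolysed for 30 min at 30 °C, and fluorescence was read at 485/520 nm.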

| IC50 (hENPP2 [1]) [nM] | IC50 (hENPP2 [2]) [nM] | Structure (SMILES) |
| --- | --- | --- |
| > 1000 | 0.01 to 25 | CCc1nc2ccc(N3CCC(CO)C3)nn2c1N(C)c1nc(-c2ccc(F)cc2)cs1 (centres unmarked) [Cpd 143, (1-(2-ethyl-3-((4-(4-fluorophenyl)thiazol-2-yl)(methyl)amino)imidazo[1,2-b]pyridazin-6-yl)pyrrolidin-3-yl)methanol] |
| 500 to 1000 | 0.01 to 25 | CCc1nc2ccc(N3CCN(CCC(N)=O)CC3)nn2c1N(C)c1nc(-c2ccc(F)cc2)cs1 [Compound 52, 3-(4-(2-ethyl-3-((4-(4-fluorophenyl)thiazol-2-yl)(methyl)amino)imidazo[1,2-b]pyridazin-6-yl)piperazin-1-yl)propanamide] |
| 100 to 500 | 0.01 to 25 | CCc1nc2ccc(N3CCN(CCNC(C)=O)CC3)nn2c1N(C)c1nc(-c2ccc(F)cc2)cs1 [Cpd 57, N-(2-(4-(2-ethyl-3-((4-(4-fluorophenyl)thiazol-2-yl)(methyl)amino)imidazo[1,2-b]pyridazin-6-yl)piperazin-1-yl)ethyl)acetamide] |
| > 1000 | 0.01 to 25 | CCc1nc2ccc(C3=CCN(S(C)(=O)=O)CC3)nn2c1N(C)c1nc(-c2ccc(F)cc2)cs1 [Cpd 194, N-(2-ethyl-6-(1-(methylsulfonyl)-1,2,3,6-tetrahydropyridin-4-yl)imidazo[1,2-b]pyridazin-3-yl)-4-(4-fluorophenyl)-N-methylthiazol-2-amine] |

The next lines start with the compound.

| Structure (SMILES) | IC50 (hENPP2 [1]) [nM] | IC50 (hENPP2 [2]) [nM] |
| --- | --- | --- |
| CCc1nc2ccc(N3CCC(CO)CC3)nn2c1N(C)c1nc(-c2ccc(F)cc2)cs1 [Cpd 93, (1-(2-ethyl-3-((4-(4-fluorophenyl)thiazol-2-yl)(methyl)amino)imidazo[1,2-b]pyridazin-6-yl)piperidin-4-yl)methanol] | > 1000 | 0.01 to 25 |
| CCc1nc2ccc(N3CC4CN(C(=O)OC(C)(C)C)CC4C3)nn2c1N(C)c1nc(-c2ccc(F)cc2)cs1 (centres unmarked) [Cpd 122, tert-butyl 5-(2-ethyl-3-((4-(4-fluorophenyl)thiazol-2-yl)(methyl)amino)imidazo[1,2-b]pyridazin-6-yl)hexahydro-pyrrolo[3,4-c] pyrrole-2(1H)-carboxylate] | > 1000 | 0.01 to 25 |
| CCc1nc2ccc(N3CCCN(C(C)=O)CC3)nn2c1N(C)c1nc(-c2ccc(F)cc2)cs1 [Cpd 115, 1-(4-(2-ethyl-3-((4-(4-fluorophenyl)thiazol-2-yl)(methyl)amino)imidazo[1,2-b]pyridazin-6-yl)-1,4-diazepan-1-yl)ethanone] | > 1000 | 0.01 to 25 |
| CCc1nc2ccc(N3CCC(S(=O)(=O)NC4CC4)CC3)nn2c1N(C)c1nc(-c2ccc(F)cc2)cs1 [Cpd 114, N-cyclopropyl-1-(2-ethyl-3-((4-(4-fluorophenyl)thiazol-2-yl)(methyl)amino)imidazo[1,2-b]pyridazin-6-yl)piperidine-4-sulfonamide] | > 1000 | 50 to 100 |
| CCc1nc2ccc(N3CC4CN(S(C)(=O)=O)CC4C3)nn2c1N(C)c1nc(-c2ccc(F)cc2)cs1 (centres unmarked) [Compound 123, N-(2-ethyl-6-(5-(methylsulfonyl)hexahydropyrrolo[3,4-c]pyrrol-2(1H)-yl)imidazo[1,2-b]pyridazin-3-yl)-4-(4-fluorophenyl)-N-methylthiazol-2-amine] | > 1000 | 0.01 to 25 |
| CCc1nc2cnc(N3CCN(CC(=O)N4CC(F)C4)CC3)cn2c1N(C)c1nc(-c2ccc(F)cc2)c(C#N)s1 [Cpd 11, 2-((2-ethyl-6-(4-(2-(3-fluoroazetidin-1-yl)-2-oxoethyl)piperazin-1-yl)imidazo[1,2-a]pyrazin-3-yl)(methyl)amino)-4-(4-fluorophenyl) thiazole-5-carbonitrile] | 100 to 500 | 0.01 to 25 |
